Measured values: patent US12390402B2, “High-content and sustained-release retinoid capsule, and composition for reducing wrinkles, containing same” (LG HOUSEHOLD & HEALTH CARE LTD., priority 2018, dated 2025)

Assay: Solubility of retinoic acid in the liquid lipid
Assay type: physicochemical
Experimental: FIG. 2 is the result of the solubility in oil according to the binding of an amine compound and retinoid.
As shown in the Table 2, the maximum concentration of the retinoic acid soluble in the liquid lipid was 0.1% of the weight of the liquid lipid, and when added more the above, the retinoic acid was not dissolved, making it impossible to synthesize capsules (Comparative examples 1, 2, 3). On the other hand, it was determined that the solubility of retinoic acid was increased over 10% of the weight of the liquid lipid, when the amine compound at the same mole concentration as retinoic acid was added during dissolving retinoic acid in the liquid lipid (See Table 2). Through this, the dry weight of the retinoid in the final capsule after washing could be increased 100 times from conventional 0.03% to 3%.

maximum concentration of the retinoic acid soluble in the liquid lipid (without amine compound, caprylic/capryl triglyceride): 0.1 % of the weight of the liquid lipid
Compound: CC1=C(/C=C/C(C)=C/C=C/C(C)=C/C(=O)O)C(C)(C)CCC1 [retinoic acid]
solubility of retinoic acid in the liquid lipid (amine compound added at the same mole concentration as retinoic acid): over 10 % of the weight of the liquid lipid
